Tests used:
PstB2 = target: T1, PstB2 (Saccharomyces cerevisiae, UniProt P53844); assay: PstB2 control protein binding to solid phase POPG; design: species or system yeast; details: PstB2 1 μg/ml
T1 construct: made in house; host or cells: baculovirus-insect cell expression system
Source text: FIG. 16. MD-2 preferentially binds POPG.

Toll-like receptor 3 = target: T2, Toll-like receptor 3 (Homo sapiens, UniProt O15455); assay: polyIC IL-8 production in NHBE cells; assay type: cell-based; details: 24 hr
T2 construct: endogenous in cells; host or cells: primary normal human bronchial epithelial (NHBE) cells
T2 sequence (O15455 24-904): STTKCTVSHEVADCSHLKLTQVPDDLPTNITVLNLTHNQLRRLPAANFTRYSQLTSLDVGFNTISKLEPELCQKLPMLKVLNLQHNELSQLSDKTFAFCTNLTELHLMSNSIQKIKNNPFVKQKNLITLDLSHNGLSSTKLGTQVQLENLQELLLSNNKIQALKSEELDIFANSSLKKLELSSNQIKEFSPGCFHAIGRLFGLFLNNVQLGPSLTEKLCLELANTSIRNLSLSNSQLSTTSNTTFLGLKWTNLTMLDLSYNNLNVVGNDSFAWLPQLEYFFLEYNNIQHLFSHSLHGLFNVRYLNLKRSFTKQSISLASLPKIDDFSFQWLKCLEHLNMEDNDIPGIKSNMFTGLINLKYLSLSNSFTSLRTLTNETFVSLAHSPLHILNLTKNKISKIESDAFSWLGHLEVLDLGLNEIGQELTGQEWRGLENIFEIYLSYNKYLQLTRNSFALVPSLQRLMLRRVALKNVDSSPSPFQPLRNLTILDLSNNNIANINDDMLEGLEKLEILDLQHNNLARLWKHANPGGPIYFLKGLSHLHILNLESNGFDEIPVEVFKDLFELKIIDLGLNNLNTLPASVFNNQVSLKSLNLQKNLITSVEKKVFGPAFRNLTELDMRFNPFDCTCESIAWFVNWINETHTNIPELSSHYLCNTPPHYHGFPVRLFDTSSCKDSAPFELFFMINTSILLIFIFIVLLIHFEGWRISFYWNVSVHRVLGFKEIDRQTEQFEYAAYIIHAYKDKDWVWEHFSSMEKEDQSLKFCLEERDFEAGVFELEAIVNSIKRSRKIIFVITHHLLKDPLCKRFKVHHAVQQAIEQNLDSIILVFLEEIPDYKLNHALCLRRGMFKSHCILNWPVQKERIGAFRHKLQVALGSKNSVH
Experimental: In this experiment, NHBE cells were stimulated with double stranded RNA (polyIC) and the IL-8 production was measured after an interval of 24 hr. The maximal stimulation by agonist is set at 100% and the antagonism by POPG is expressed as the relative % response. The Controls consist of no treatment, or treatment with POPG, in the absence of agonist as indicated.

TLR6 = target: T3, TLR6 (Mus musculus, UniProt Q9EPW9); assay: TLR agonist TNFα production in RAW 264.7 cells, TLR6; assay type: cell-based; details: MALP2, 24 h
T3 construct: endogenous in cells; host or cells: RAW 264.7
T3 sequence (Q9EPW9 28-795): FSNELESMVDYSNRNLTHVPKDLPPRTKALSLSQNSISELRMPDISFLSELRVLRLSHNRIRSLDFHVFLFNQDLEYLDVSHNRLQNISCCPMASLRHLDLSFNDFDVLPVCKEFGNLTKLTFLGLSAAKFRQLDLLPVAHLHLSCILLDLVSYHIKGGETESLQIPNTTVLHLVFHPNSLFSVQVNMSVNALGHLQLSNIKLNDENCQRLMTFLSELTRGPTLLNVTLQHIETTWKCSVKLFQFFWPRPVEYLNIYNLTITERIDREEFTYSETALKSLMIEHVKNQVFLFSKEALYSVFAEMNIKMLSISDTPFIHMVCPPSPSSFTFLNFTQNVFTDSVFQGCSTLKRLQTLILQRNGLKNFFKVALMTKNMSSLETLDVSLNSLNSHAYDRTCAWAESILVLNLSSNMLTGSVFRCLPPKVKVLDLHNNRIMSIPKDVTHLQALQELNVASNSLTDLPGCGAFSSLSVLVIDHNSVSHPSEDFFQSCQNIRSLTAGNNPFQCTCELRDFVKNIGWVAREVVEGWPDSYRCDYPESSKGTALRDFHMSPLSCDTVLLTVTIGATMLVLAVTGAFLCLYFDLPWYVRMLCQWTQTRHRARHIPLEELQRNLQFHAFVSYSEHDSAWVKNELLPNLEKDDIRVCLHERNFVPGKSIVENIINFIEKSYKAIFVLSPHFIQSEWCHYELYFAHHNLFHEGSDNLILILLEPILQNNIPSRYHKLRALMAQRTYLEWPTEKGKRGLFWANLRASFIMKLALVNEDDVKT
Experimental: (§1) In this experiment, multiple TLRs were stimulated with defined TLR agonists for 24 h and the TNFα production was measured. In each case, the maximal stimulation by agonist is set at 100% and the antagonism by POPG is expressed as the relative % response. The Controls consist of no treatment, or treatment with POPG in the absence of agonist as indicated. The agonists for the TLRs consist of Pam3Cys for TLR1/2, Mycoplasma pneumoniae membranes as an agonist for TLR2, mycoplasma derived MALP2 as an agonist for TLR 2/6, double stranded RNA (poly IC) for TLR3, Gram-negative lipopolysaccharide for TLR4, and CpG rich DNA as an agonist for TLR9. The TLR4 panel also contains the antagonist polymyxin B (PB) for comparison with POPG.

RSV = RSV binding to Hep2 cells (FACScan); assay type: cell-based, Respiratory Syncytial Virus (RSV); details: Hep2, multiplicity 50, 37 C 10 min, lipid 200 ug/ml
Experimental: Suspensions of 3×10^5 Hep2 cells were treated with RSV at a multiplicity of 50, at 37 C for 10 min, in either the absence of lipid, or the presence of 200 ug/ml POPG, or POPC, as indicated. The cells were next shifted to 0 C and washed 3 times with PBS. The cells were then incubated with monoclonal mouse anti-RSV antibody for 1 h at 0 C in PBS containing 5% BSA. The unbound antibody was removed by washing the cells 3 times with PBS, 5% BSA. Next, the cells were incubated with phycoerythrin conjugated rabbit anti-mouse antibody in PBS, 5% BSA for 2 h. Following this incubation the cells were washed 3 times with PBS and fixed overnight with 1% buffered formalin. The fixed cell preparation was washed 3 times with PBS and subjected to FACScan analysis as shown in the left panel of FIG. 38. The summary of the mean fluorescence intensity (MFI) for all conditions is shown in the right panel of FIG. 38.

TLR4 = target: T4, TLR4 (Homo sapiens, UniProt O00206); assay: TLR agonist IL-8 production in primary human neutrophils, TLR4; assay type: cell-based; details: LPS, 5-24 h
T4 construct: multiple Toll-like receptors (TLRs) on primary human neutrophils; endogenous in cells; host or cells: primary human neutrophils
T4 sequence (O00206 24-839): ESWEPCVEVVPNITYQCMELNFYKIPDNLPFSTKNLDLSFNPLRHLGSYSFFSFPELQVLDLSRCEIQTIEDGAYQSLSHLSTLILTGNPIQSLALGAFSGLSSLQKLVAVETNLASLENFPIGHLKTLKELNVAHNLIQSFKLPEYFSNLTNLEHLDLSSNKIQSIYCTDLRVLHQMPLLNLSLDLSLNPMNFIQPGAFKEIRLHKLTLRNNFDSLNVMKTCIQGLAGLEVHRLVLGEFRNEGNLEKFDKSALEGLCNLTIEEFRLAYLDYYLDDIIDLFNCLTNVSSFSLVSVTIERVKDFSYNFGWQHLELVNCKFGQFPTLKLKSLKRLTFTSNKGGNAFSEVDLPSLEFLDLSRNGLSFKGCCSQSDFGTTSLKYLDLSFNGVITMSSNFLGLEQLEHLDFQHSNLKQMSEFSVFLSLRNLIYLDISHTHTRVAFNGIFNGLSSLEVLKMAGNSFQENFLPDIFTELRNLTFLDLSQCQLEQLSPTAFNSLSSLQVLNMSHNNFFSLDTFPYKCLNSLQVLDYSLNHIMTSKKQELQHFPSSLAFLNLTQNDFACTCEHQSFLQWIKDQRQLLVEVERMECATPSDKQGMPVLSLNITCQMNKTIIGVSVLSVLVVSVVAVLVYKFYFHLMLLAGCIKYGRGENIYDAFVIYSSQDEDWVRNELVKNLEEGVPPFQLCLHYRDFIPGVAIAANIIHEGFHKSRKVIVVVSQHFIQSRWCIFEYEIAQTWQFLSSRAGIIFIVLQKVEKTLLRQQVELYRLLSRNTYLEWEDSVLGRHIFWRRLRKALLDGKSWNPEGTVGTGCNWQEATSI
T4 sequence (Q9Y6Y9 19-160 partner): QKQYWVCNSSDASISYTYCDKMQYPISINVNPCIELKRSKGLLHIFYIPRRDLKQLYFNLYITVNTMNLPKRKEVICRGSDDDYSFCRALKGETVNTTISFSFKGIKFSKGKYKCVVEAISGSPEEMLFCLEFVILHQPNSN
Experimental: In this experiment, multiple TLRs were stimulated with defined TLR agonists for 5-24 h as indicated, and the IL-8 production was measured. In each case the maximal stimulation by agonist is set at 100% and the antagonism by POPG is expressed as the relative % response. The Controls consist of no treatment, or treatment with POPG, in the absence of agonist as indicated. The agonists for the TLRs consist of Pam3Cys for TLR1/2, double stranded RNA (poly IC) for TLR3, Gram-negative lipopolysaccharide (LPS) for TLR4, and single stranded RNA (polyU) for TLR7/8.

TLR2 = target: T5, TLR2 (Mus musculus, UniProt Q9QUN7); assay: TLR agonist TNFα production in RAW 264.7 cells, TLR2; assay type: cell-based; details: Mycoplasma pneumoniae membranes, 24 h
T5 construct: endogenous in cells; host or cells: RAW 264.7
T5 sequence (Q9QUN7 25-784): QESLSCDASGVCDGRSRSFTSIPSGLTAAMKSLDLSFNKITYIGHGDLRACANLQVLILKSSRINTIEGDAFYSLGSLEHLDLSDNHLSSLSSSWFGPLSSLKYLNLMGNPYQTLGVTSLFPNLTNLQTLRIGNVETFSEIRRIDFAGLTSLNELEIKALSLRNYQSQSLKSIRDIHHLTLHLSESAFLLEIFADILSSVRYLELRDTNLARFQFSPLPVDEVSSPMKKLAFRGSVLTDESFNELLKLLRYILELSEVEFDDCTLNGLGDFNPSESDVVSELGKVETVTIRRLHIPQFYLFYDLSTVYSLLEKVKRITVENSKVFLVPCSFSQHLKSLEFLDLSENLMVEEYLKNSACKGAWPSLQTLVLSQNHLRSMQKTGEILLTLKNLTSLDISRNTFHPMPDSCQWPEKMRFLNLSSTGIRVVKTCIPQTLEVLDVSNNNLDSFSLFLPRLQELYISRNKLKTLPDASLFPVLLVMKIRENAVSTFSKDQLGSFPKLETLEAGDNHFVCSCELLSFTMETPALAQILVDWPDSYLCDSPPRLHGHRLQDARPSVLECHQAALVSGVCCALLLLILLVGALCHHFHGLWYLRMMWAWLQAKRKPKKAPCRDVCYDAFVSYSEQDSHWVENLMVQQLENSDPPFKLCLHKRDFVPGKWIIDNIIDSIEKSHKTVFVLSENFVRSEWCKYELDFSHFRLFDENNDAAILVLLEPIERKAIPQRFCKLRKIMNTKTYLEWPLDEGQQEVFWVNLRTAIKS
Experimental: as §1

MD-2 binding to sTLR4 = target: T6, MD-2 binding to sTLR4 (Homo sapiens, UniProt Q9Y6Y9); assay: Phospholipid competition for MD-2-sTLR4 binding
T6 construct: made in house; host or cells: baculovirus-insect cell expression system
T6 sequence (Q9Y6Y9 19-160): as the sequence (Q9Y6Y9 19-160 partner) above
Experimental: CD14 (2 μg) or sTLR4 (100 ng) in aliquots of 20 μl of buffer B were pipeted onto a 96-well plate, and the solvent evaporated using a warm air dryer. […] The amount of bound LBP or MD-2 was detected using specific antibodies.

[1] = tested on: Respiratory Syncytial Virus (RSV); assay: RSV replication in BEAS2B cells (anti-RSV antibody staining); assay type: cell-based; details: multiplicity 3, 72 h, POPG 200 ug/ml
Experimental: Monolayers of BEAS2B and NHBE cells were infected with RSV at a multiplicity of 3 for 72 h. Infections were performed on cells in either the absence or the presence of POPG (200 ug/ml). The cell monolayers were fixed and stained with goat anti-human RSV antibody conjugated with horseradish peroxidase. The presence of the antibody was detected with diaminobenzamidine. Controls consisted of cell layers not exposed to the virus or exposed to POPG in the absence of virus as indicated.

T1 sequence (P53844 whole entry): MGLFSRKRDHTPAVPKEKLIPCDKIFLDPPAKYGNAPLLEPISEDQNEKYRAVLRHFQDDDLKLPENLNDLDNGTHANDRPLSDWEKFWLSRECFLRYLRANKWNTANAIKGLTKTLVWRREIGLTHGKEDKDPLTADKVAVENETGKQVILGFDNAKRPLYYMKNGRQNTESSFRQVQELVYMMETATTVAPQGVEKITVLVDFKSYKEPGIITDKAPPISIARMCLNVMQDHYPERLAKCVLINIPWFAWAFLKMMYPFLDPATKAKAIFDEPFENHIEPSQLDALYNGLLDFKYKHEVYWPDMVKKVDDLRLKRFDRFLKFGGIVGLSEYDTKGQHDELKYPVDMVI

CCCCCCCC/C=C\CCCCCCCC(=O)O[C@H](COC(=O)CCCCCCCCCCCCCCC)COP(=O)(O)OCC(O)CO (stereo partly drawn) [POPG, palmitoyl-oleoyl-phosphatidylglycerol]
binding to PstB2 (PstB2): not
activity of TLR3 (IL-8 production) (Toll-like receptor 3): inhibits
activity of TLR6 (TNFα production) (TLR6): inhibits
binding of RSV to epithelial cells (RSV): blocks the binding
activity of TLR4 (IL-8 production) (TLR4): inhibits
activity of TLR2 (TNFα production) (TLR2): inhibits
inhibition of the MD-2/TLR4 interaction (MD-2 binding to sTLR4; lipid competitor up to 200 μg/ml): approximately 75%
inhibition of the MD-2/TLR4 interaction (MD-2 binding to sTLR4; low levels of lipid competitor (20 μg/ml)): 40%
viral replication [1]: prevents viral replication

Reference: US10532066B2, “Surfactant lipids, compositions thereof, and uses thereof” (National Jewish Health, priority 2007, dated 2020)
